Data as given in article PMC5893428, “Heligmosomoides polygyrus Venom Allergen-like Protein-4 (HpVAL-4) is a sterol binding protein” (International Journal for Parasitology, 2018).

Biological target: T1, HpVAL-4 (Heligmosomoides polygyrus, UniProt A0A183GMB4)
T1 construct: mature protein, Arabidopsis chitinase signal peptide for secretion, no tag mentioned; Nicotiana benthamiana leaf apoplast; N-glycosylated
Assay: radioligand binding, adsorption to Q-Sepharose, scintillation counting

T1 sequence (A0A183GMB4 entry or part of it): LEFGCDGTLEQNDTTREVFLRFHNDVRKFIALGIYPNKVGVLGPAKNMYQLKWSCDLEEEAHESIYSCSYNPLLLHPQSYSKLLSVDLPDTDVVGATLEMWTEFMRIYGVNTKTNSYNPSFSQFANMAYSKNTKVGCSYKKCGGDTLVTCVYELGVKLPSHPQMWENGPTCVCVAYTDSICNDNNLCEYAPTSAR

## CC(C)CCC[C@@H](C)[C@H]1CC[C@H]2[C@@H]3CC=C4C[C@@H](O)CC[C@]4(C)[C@H]3CC[C@]12C [cholesterol]
  Kd: 1.53 µM
